Experimental data published in BigSolDB 2.1.

Cc1c(OCC(F)(F)F)ccnc1CS(=O)c1nc2ccccc2[nH]1 (stereo not drawn)
solubility (mole fraction)
Details | 278.15 K | 283.15 K | 288.15 K | 293.15 K | 298.15 K | 303.15 K | 308.15 K | 313.15 K | 318.15 K
in acetone | 0.0174 | 0.0197 | 0.0221 | 0.0256 | 0.0287 | 0.0337 | 0.0398 | 0.0461 | 0.053
in acetonitrile | 0.00324 | 0.00406 | 0.00516 | 0.00642 | 0.00805 | 0.01 | 0.0124 | 0.015 | 0.0186
in ethanol | 0.00976 | 0.0114 | 0.0145 | 0.0179 | 0.0221 | 0.0274 | 0.0327 | 0.0402 | 0.0487
in ethyl acetate | 0.00415 | 0.00512 | 0.00637 | 0.00799 | 0.00962 | 0.0118 | 0.0145 | 0.0175 | 0.0216
in isobutanol | 0.00434 | 0.00534 | 0.00657 | 0.00803 | 0.0098 | 0.012 | 0.0148 | 0.0179 | 0.0218
in isopropanol | 0.00417 | 0.00469 | 0.00569 | 0.00708 | 0.00879 | 0.0109 | 0.0136 | 0.0168 | 0.0204
in methanol | 0.022 | 0.0271 | 0.0331 | 0.0428 | 0.0532 | 0.0653 | 0.0803 | 0.101 | 0.125
in methyl acetate | 0.00633 | 0.00729 | 0.00849 | 0.0105 | 0.0131 | 0.0158 | 0.02 | 0.0245 | 0.03
in n-butanol | 0.00564 | 0.00701 | 0.00832 | 0.0105 | 0.0127 | 0.016 | 0.0196 | 0.0242 | 0.0296
in n-butyl acetate | 0.00168 | 0.00206 | 0.00259 | 0.00329 | 0.00406 | 0.00505 | 0.0063 | 0.00785 | 0.00945
in n-propanol | 0.00803 | 0.00912 | 0.0108 | 0.0132 | 0.0157 | 0.019 | 0.0233 | 0.028 | 0.0335
in n-propyl acetate | 0.00227 | 0.00268 | 0.00342 | 0.00417 | 0.00522 | 0.00654 | 0.00831 | 0.0101 | 0.0127
